In patent US8703165B2, “Spiro fused 1-amino-piperdine pyrrolidine dione derivatives with pesticidal activity” (Syngenta Crop Protection, Inc., priority 2009, dated 2014):

Cc1cc(C)c(C2C(=O)OC3(CCN(N(C)C)CC3)C2=O)c(C)c1 (stereo not shown) [A11, 8-Dimethylamino-3-(2,4,6-trimethyl-phenyl)-1-oxa-8-azaspiro[4.5]decane-2,4-dione]
melting point: > 200 °C
